Legend:
[1] = target: T1, LSD1 (Homo sapiens, UniProt O60341); test: LSD1 demethylase inhibition assay (Amplex Red peroxide/peroxidase-coupled); format: biochemical; set-up: purchased BPS Bioscience Inc; settings: from the IC50 values for LSD1, MAO-A and MAO-B
Experimental: Compounds for use in the methods of the invention can be identified by their ability to inhibit LSD1. The ability of compounds to inhibit LSD1 can be tested as follows. Human recombinant LSD1 protein was purchased from BPS Bioscience Inc. In order to monitor LSD1 enzymatic activity and/or its inhibition rate by the LSD1 inhibitor(s) of interest, di-methylated H3-K4 peptide (Millipore) was chosen as a substrate.
Within the experiment, each concentration of inhibitor was tested in duplicate. […] The enzymatic reactions were set up in a 50 mM sodium phosphate, pH 7.4 buffer. At the end of the incubation, Amplex® Red reagent and horseradish peroxidase (HPR) solution were added to the reaction according to the recommendations provided by the supplier (Invitrogen), and left to incubate for 30 extra minutes at room temperature in the dark. A 1 μM H2O2 solution was used as a control of the kit efficiency. […] Arbitrary units were used to measure level of H2O2 produced in the absence and/or in the presence of inhibitor.
The maximum demethylase activity of LSD1 was obtained in the absence of inhibitor and corrected for background fluorescence in the absence of LSD1. The Ki (IC50) of each inhibitor was estimated at half of the maximum activity.

[2] = target: T1, LSD1; settings: Ueda et al. (2009) J. Am. Chem. Soc. 131(48):17536-17537; cited from earlier work
[3] = test system: dimethylated H3K4 in SH-SY5Y cells; test: Western blot for H3K4 methylation in SH-SY5Y cells; format: cell-based; settings: Dual-1 100 μM vs parnate 250 μM
Description: FIG. 3 Compound Dual-1 Increases Histone Methylation.
B-actin was used as a loading control.

selectivity class (LSD1 vs MAO-A and MAO-B) [1]: dual LSD1/MAO-B selective inhibitors
Structure (SMILES): NC(=O)CN[C@H]1C[C@@H]1c1ccc(OCc2ccccc2)cc1 (racemic) [Compound 1]
IC50 [2]: 2500 nM
potency at increasing global H3K4 methylation levels compared to tranylcypromine [3]: ten-fold or more potent
